# Measurements: patent US7262173B2, “Chemosensitizing with liposomes containing oligonucleotides” (Georgetown University, priority 1997, dated 2007)
# Key:
# [1] = system: SQ-20B tumor cells; assay: Intracellular stability of antisense raf ODN in DMTAP:PC:CHOL liposomes; assay type: cell-based, human; conditions: 10 μM, 4 hours, 1% serum
# Description: Stability experiments: SQ-20B tumor cells were incubated with a mixture of radiolabeled-(^32P-γATP) and 10 μM of unlabeled antisense raf oligonucleotide (ATG-AS (SEQ ID NO:1)) either in the liposome encapsulated form (LE-ATG-AS (SEQ ID NO:1)) (FIG. 19, Lane 1) or free form (ATG-AS (SEQ ID NO:1)) (FIG. 19, lane 2). The treatment lasted for 4 hours at 37° C. in 1% serum containing medium. Immediately following incubation, cells were washed with phosphate buffered saline (PBS), detached by trypsinization, and collected by centrifugation. The cell pellet was washed twice with PBS, and cells were then lysed in 10 mM Tris-HCl, 200 mM NaCl, 1% SDS, 200 μg/ml proteinase K, pH 7.4 for 2 hours at 37° C. Oligos were extracted with phenol:chloroform, and aqueous fraction was collected. The samples were normalized for equal radioactivity, and analyzed hy denaturing gel electrophoresis (15% polyacrylamide/7M urea), followed by autoradiography. […]
# Stability experiments: SQ-20B tumor cells were incubated with a mixture of radiolabeled (^32P-γATP) and 10 μM of unlabeled antisense raf oligonucleotide (ATG-AS (SEQ ID NO:1)) in the liposome encapsulated form (LE-ATG-AS (SEQ ID NO:1)). […] The samples were normalized for equal radioactivity, and analyzed by denaturing gel electrophoresis (15% polyacrylamide/7M urea), followed by autoradiography. […]
# [2] = system: Raf-1; assay: Raf-1 expression in SQ-20B tumor xenografts after i.v. or intratumoral ODN; assay type: in vivo, human; conditions: intravenous treatment; compared with untreated controls
# Description: FIG. 7: Effects of intravenous administration of LE-ATG-AS raf ODN (SEQ ID NO:1) our Raf-1 expression in normal and tumor tissues. Raf-1 expression was examined in liver, kidneys and SQ-20B tumor xenograft of Balb/c nu/nu mice after i.v. injections of 6 mg/kg daily dose of LE-ATG-AS raf ODN (SEQ ID NO:1) (AS) or LE-ATG-S raf ODN (SEQ ID NO:3) (S) for five consecutive days. Control mice (C) received normal saline. Representative data showing Raf-1 expression in lysates normalized for protein content by immunoprecipitation and immunoblotting (top). Quantification data are shown as mean±s.d. from three mice (bottom).
# FIG. 8: Inhibition of Raf-1 protein expression in SQ-20B tumor xenografts by intratumoral administration of LE-ATG-AS raf ODN (SEQ ID NO:1): Each animal received intratumoral injections of LE-ATG-AS raf ODN (SEQ ID NO:1) (AS) on the right flank and LE-ATG-S raf ODN (SEQ ID NO:3) (S) on the left flank at a dose of 4 mg/kg daily for seven days as explained in the experimental procedures. […] Quantification data shown are mean±s.d., from three representative mice. […]
# For in vivo expression studies, tumor tissue and organs were homogenized in the cell lysis buffer using Polytron homogenizer (Westbury, N.Y., USA). Raf-1 expression was analyzed in tissue homogenates by immunoprecipitation and immunoblotting as described above.
# [3] = Tissue distribution of raf ODN after i.v. injection; assay type: in vivo, Balb/c nu/nu mice; conditions: 30 mg/kg i.v., free ODN; data not shown
# Description: FIG. 4: Tissue distribution profiles of LE-ATG-AS raf ODN (SEQ ID NO:1).
# Male Balb/c nu/nu mice (Charles River, Raleigh, N.C., USA; 10–12 weeks old) were maintained in the Research Resources Facility of the Georgetown University according to accredited procedure, and fed purina chow and water ad libitum. […] At 5 min, 15 min, 30 min, 1 h, 2 h, 4 h, 8 h, 24 h and 48 h after injection, one animal in each group was bled from the retro-orbital sinus into heparinized tubes under anesthesia, and killed by cervical dislocation.
# The extracts were loaded on to 20% polyacrylamide/3 M urea gels and electrophoresed in TBE buffer. […] The radiolabeled probe was generated by 5′-end-labeling of ATG-S′ raf ODN (SEQ ID NO:3) with γ^32-P-ATP using T4 polynucleotide kinase and purification over Chroma Spin-10 columns (Clontech, Palo Alto, Calif., and USA). […] The autoradiographs were scanned using a computer program (ImageQuant software, Molecular Dynamics, Sunnyvale, Calif., and USA), and the amounts of ATG-AS raf ODN (SEQ ID NO:1) in various samples were calculated by comparison to standards.
substance,measurement,setting,value
"5′-GTG-CTCCATTGATGC-3′ (antisense GTGCTCCATTGATGC; DNA, linkages s1 o12 s1 (s phosphorothioate, o phosphodiester), methylation of C not given here) [ATG-AS raf ODN, antisense ODN to translation initiation site of human c-raf-1 cDNA; one terminal base linkage at each end phosphorothioate]",integrity of oligonucleotide in treated cells,[1],degraded form
same,effect on Raf-1 expression in tumor tissue,[2],no effect
same,only time at which intact ODN seen in various organs,[3],5 min
